This is an account of results in ChEMBL document CHEMBL3714748, “Compounds and compositions as ITPKB inhibitors” (2012).

The target of one test is T1, Kinase (Mus musculus, UniProt B2RXC2).
T1 sequence (B2RXC2 whole entry): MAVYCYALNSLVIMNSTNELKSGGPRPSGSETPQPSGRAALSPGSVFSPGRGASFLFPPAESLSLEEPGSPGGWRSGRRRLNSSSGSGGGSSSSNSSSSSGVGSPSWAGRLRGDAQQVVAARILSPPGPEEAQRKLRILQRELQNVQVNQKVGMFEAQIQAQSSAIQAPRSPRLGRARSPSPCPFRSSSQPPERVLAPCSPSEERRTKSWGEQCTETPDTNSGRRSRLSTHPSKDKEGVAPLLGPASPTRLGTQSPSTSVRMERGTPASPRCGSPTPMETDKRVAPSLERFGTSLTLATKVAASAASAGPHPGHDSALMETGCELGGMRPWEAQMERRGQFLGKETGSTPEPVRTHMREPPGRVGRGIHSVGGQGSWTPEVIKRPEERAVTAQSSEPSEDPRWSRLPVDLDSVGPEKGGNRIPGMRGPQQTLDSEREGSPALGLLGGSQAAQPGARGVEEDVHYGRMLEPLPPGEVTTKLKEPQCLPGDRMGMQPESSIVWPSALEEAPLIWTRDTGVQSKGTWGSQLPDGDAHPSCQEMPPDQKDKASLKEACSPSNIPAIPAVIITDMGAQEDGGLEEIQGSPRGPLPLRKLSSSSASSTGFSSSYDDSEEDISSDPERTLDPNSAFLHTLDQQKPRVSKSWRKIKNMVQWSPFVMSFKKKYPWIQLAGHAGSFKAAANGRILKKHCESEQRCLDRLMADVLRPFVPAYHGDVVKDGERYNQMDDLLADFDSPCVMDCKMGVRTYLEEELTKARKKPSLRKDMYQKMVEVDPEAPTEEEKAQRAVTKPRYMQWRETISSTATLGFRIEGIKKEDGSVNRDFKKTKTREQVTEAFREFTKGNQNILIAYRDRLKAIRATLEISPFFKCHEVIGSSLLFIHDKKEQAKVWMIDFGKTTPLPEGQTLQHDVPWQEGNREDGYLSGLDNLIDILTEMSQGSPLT
Kind of test: Inhibition of mouse ITPKb (640 to 942 residues) expressed in Escherichia coli HK100 assessed as reduction in IP3 phosphorylation incubated for 60 mins by kinase-Glo ATP depletion assay.

In test [1] the target is T2, Inositol-trisphosphate 3-kinase B (Homo sapiens, UniProt P27987).
T2 sequence (P27987 whole entry): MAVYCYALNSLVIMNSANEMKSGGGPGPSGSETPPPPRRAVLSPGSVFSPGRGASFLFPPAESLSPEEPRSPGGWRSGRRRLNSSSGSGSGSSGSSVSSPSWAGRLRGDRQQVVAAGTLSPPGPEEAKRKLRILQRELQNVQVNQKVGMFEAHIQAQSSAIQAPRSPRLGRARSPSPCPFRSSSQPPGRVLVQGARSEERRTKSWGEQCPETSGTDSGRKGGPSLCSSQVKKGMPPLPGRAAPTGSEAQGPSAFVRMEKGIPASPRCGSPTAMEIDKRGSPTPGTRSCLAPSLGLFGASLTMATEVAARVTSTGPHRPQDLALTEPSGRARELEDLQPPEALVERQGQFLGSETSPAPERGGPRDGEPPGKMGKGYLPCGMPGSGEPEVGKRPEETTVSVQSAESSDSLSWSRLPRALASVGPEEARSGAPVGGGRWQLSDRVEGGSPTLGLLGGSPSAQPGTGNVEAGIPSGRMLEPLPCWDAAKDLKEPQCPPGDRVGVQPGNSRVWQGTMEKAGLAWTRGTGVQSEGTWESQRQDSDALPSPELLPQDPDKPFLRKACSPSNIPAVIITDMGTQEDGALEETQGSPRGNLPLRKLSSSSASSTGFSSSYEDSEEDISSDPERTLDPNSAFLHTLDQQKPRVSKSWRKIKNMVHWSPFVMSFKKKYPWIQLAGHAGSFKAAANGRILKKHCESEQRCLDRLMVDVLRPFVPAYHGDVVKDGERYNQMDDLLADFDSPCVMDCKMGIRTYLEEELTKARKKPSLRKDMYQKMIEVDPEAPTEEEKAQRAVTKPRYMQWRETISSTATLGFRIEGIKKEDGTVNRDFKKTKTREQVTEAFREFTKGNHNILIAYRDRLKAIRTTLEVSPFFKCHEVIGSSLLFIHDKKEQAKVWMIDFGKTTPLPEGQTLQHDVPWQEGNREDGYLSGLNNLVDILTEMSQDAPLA
The experiment in a line: Inhibition of ITPKb in human Jurkat cells assessed as reduction in conversion of IP3 to IP4 using [3H]-myo-inositol incubated for 5 mins by beta-RAM radio-HPLC method. Format: cell-based.

As to `C[C@H]1CN(Cc2c[nH]nc2-c2ccc3c(c2)CNC(=O)O3)CCN1c1ccc(C(F)(F)F)cn1`, the IC50 is under 100 nM on Kinase and under 500 nM in test [1].

For `C[C@H]1CN(Cc2c[nH]nc2-c2ccc3[nH]c(=O)oc3c2)CCN1c1ccc(C(F)(F)F)cn1`, the IC50 at Kinase is under 100 nM; in test [1] it was under 500 nM.

For `C[C@@H]1CN(Cc2c[nH]nc2-c2ccc3c(c2)CNC(=O)O3)CCN1c1nccc(C(F)(F)F)n1`, the IC50 is under 100 nM at Kinase and under 500 nM in test [1].

With `O=C1NCc2cc(-c3n[nH]cc3CN3CCN(c4ccc(C(F)(F)F)cn4)C(C(F)(F)F)C3)ccc2O1` (stereo not drawn), the IC50 at Kinase was under 100 nM; in test [1], under 500 nM.

In the case of `C[C@@H]1CN(Cc2c[nH]nc2-c2ccc3c(c2)CNC(=O)C3)CCN1c1ccc(C(F)(F)F)cn1`, the values for the IC50 (on Kinase; in test [1]) were under 100 nM and under 500 nM, respectively.

For `C[C@@H]1CN(Cc2c[nH]nc2-c2ccc3oc(=O)[nH]c(=O)c3c2)CCN1c1ccc(C(F)(F)F)cn1`, the figures for the IC50 (on Kinase; in test [1]) were under 100 nM and under 500 nM, respectively.

Turning to `Cc1cccc(N2CCN(Cc3c[nH]nc3-c3ccc4[nH]c(=O)oc4c3)CC2)c1C`, the IC50 at Kinase was under 100 nM; in test [1] it was under 500 nM.

Turning to `O=C1NCc2cc(-c3n[nH]cc3CN3C4CCC3CN(c3ccc(C(F)(F)F)cn3)C4)ccc2O1`, the IC50 on Kinase was under 100 nM; in test [1], under 500 nM.

With `C[C@@H]1CN(Cc2c[nH]nc2-c2ccc3c(c2)CNC(=O)N3)CCN1c1ccc(C(F)(F)F)cn1`, the results for the 50% inhibitory concentration (IC50) (at Kinase; in test [1]) were under 100 nM and under 500 nM, respectively.

Consider `C[C@@H]1CN(Cc2c[nH]nc2-c2ccc3c(c2)CNC(=O)O3)CCN1c1cccc(C(F)(F)F)c1`, for which the IC50 is under 100 nM at Kinase and under 500 nM in test [1].

Consider `O=c1[nH]c(=O)c2cc(-c3n[nH]cc3CN3C4CCC3CN(c3ccc(C(F)(F)F)cn3)C4)ccc2o1`, for which the IC50 on Kinase is under 100 nM; in test [1] it was under 500 nM.

Consider `O=C1NCc2cc(-c3n[nH]cc3CN3CCN(c4ccc(C(F)(F)F)cn4)C4(CC4)C3)ccc2O1`, for which the IC50 at Kinase is under 100 nM; in test [1] it was under 500 nM.

Turning to `O=C1NCc2cc(-c3n[nH]cc3CN3CCN(c4ccc(C(F)(F)F)cn4)CC3C(F)(F)F)ccc2O1` (stereo not drawn), the IC50 at Kinase is under 100 nM.

In the case of `C[C@@H]1CN(Cc2c[nH]nc2-c2ccc3c(c2)CNC(=O)O3)CCN1c1cc(C#N)ccn1`, the values for the IC50 (on Kinase; in test [1]) were under 100 nM and under 500 nM, respectively.

`C[C@@H]1CN(Cc2c[nH]nc2-c2ccc3c(c2)CNC(=O)O3)CCN1c1ccc(Cl)cn1`: the IC50 on Kinase was under 100 nM; in test [1], under 500 nM.

Consider `O=C1NCc2cc(-c3n[nH]cc3CN3CCN(c4ccc(C(F)(F)F)cn4)C[C@H]3C(=O)O)ccc2O1`, for which the IC50 on Kinase is under 100 nM; in test [1], under 500 nM.

As for `O=C1NCc2cc(-c3n[nH]cc3CN3CCN(c4ccc(C(F)(F)F)cn4)C[C@H]3CO)ccc2O1`, the values for the IC50 (at Kinase; in test [1]) were under 100 nM and under 500 nM, respectively.

On to `Cc1cccc(N2CCN(Cc3c[nH]nc3-c3ccc4oc(=O)[nH]c(=O)c4c3)CC2)c1C`, for which the values for the IC50 (on Kinase; in test [1]) were under 100 nM and under 500 nM, respectively.

Turning to `O=c1[nH]c(=O)c2cc(-c3n[nH]cc3CN3CCN(c4ccc(C(F)(F)F)cn4)CC3)ccc2o1`, the IC50 on Kinase was under 100 nM; in test [1], under 500 nM.

As for `C[C@@H]1CN(Cc2c[nH]nc2-c2ccc3c(c2)CNC(=O)O3)CCN1c1ccc(C(F)(F)F)cc1`, the figures for the IC50 (on Kinase; in test [1]) were under 100 nM and under 500 nM, respectively.

With `Cc1ccc(N2CCN(Cc3c[nH]nc3-c3ccc4c(c3)CNC(=O)O4)C[C@H]2C)nc1`, the IC50 at Kinase was under 100 nM; in test [1], under 500 nM.

Regarding `O=C1NCc2cc(-c3n[nH]cc3CN3CCN(c4ccc(C(F)(F)F)cn4)[C@H](CO)C3)ccc2O1`, the IC50 on Kinase was under 100 nM; in test [1] it was under 500 nM.

In the case of `C[C@@H]1CN(Cc2c[nH]nc2-c2ccc3c(c2)CNC(=O)O3)CCN1c1ccc(C#N)cn1`, the values for the IC50 (at Kinase; in test [1]) were under 100 nM and under 500 nM, respectively.

As to `C[C@@H]1CN(Cc2c[nH]nc2-c2ccc3c(c2)CNC(=O)O3)CCN1Cc1ccccc1F`, the figures for the IC50 (at Kinase; in test [1]) were under 100 nM and under 500 nM, respectively.

With `O=C1NCc2cc(-c3n[nH]cc3CN3CCN(c4ccc(C(F)(F)F)cn4)[C@@H](C(F)(F)F)C3)ccc2O1`, the IC50 is under 100 nM on Kinase and under 500 nM in test [1].

On to `C[C@@H]1CN(Cc2c[nH]nc2-c2ccc3c(c2)CNC(=O)O3)CCN1c1ccc(Cl)cc1`, for which the IC50 on Kinase was under 100 nM; in test [1], under 500 nM.

For the molecule `O=C1NCc2cc(-c3n[nH]cc3CN3CCN(c4ccc(C(F)(F)F)cn4)[C@H](CF)C3)ccc2O1`, the values for the IC50 (at Kinase; in test [1]) were under 100 nM and under 500 nM, respectively.

Regarding `O=C1NCc2cc(-c3n[nH]cc3CN3CCN(c4ccc(C(F)(F)F)cn4)[C@H](C(F)(F)F)C3)ccc2O1`, the IC50 at Kinase is under 100 nM; in test [1], under 500 nM.

Consider `C[C@@H]1CN(Cc2c[nH]nc2-c2ccc3c(c2)CNC(=O)O3)CCN1C1CCCCC1`, for which the IC50 is under 100 nM on Kinase and under 500 nM in test [1].

For `C[C@@H]1CN(Cc2c[nH]nc2-c2ccc3oc(=O)[nH]c3c2)CCN1c1ccc(C(F)(F)F)cn1`, the IC50 at Kinase is under 100 nM; in test [1], under 500 nM.

Consider `C[C@H]1CN(Cc2c[nH]nc2-c2ccc3oc(=O)[nH]c(=O)c3c2)CCN1c1ccc(C(F)(F)F)cn1`, for which the IC50 was under 100 nM at Kinase and under 500 nM in test [1].

Turning to `O=C1Cc2ccc(-c3n[nH]cc3CN3CCCN(c4ccc(C(F)(F)F)cn4)CC3)cc2CN1`, the IC50 was under 100 nM at Kinase and under 500 nM in test [1].

Turning to `C[C@@H]1CN(Cc2n[nH]nc2-c2ccc3c(c2)CNC(=O)O3)CCN1c1ccc(C(F)(F)F)cn1`, the values for the IC50 (at Kinase; in test [1]) were under 100 nM and under 500 nM, respectively.

In the case of `O=C1NCc2cc(-c3n[nH]cc3CN3CCCN(c4ccc(C(F)(F)F)cn4)CC3)ccc2N1`, the IC50 is under 100 nM at Kinase and under 500 nM in test [1].

As for `O=C1NCc2cc(-c3n[nH]cc3CN3CCN(c4ccc(C(F)(F)F)cn4)CC3)ccc2O1`, the IC50 on Kinase is under 100 nM; in test [1], under 500 nM.

Regarding `C[C@@H]1CN(Cc2c[nH]nc2-c2ccc3c(c2)CNC(=O)O3)CCN1c1ccc(C(F)(F)F)cn1`, the IC50 on Kinase was under 100 nM; in test [1], under 500 nM.

Take `O=C1NCc2cc(-c3n[nH]cc3CN3CCN(c4ccc(C(F)(F)F)cn4)C[C@H]3CF)ccc2O1`: the IC50 at Kinase was under 100 nM; in test [1], under 500 nM.

With `C[C@@H]1CN(Cc2c[nH]nc2-c2ccc3[nH]c(=O)oc3c2)CCN1c1ccc(C(F)(F)F)cn1`, the IC50 was under 100 nM at Kinase and under 500 nM in test [1].

For `C[C@@H]1CN(Cc2c[nH]nc2-c2ccc3c(c2)C(=O)NC(=O)C3)CCN1c1ccc(C(F)(F)F)cn1`, the IC50 on Kinase was under 100 nM; in test [1], under 500 nM.

Turning to `O=C1NCc2cc(-c3n[nH]cc3CN3CCCN(c4ccc(C(F)(F)F)cn4)CC3)ccc2O1`, the IC50 is under 100 nM on Kinase and under 500 nM in test [1].

On to `O=C1NCc2cc(-c3n[nH]cc3CN3C4CC3CN(c3ccc(C(F)(F)F)cn3)C4)ccc2O1`, for which the IC50 on Kinase was under 100 nM; in test [1], under 500 nM.

On to `C[C@@H]1CN(Cc2c[nH]nc2-c2ccc3c(c2)C(C)(C)NC(=O)O3)CCN1c1ccc(C(F)(F)F)cn1`, for which the IC50 is under 100 nM on Kinase and under 500 nM in test [1].
